Read-outs that look alike come from different tables or passages of the source.
Columns and labels:
Type in all cases: in vivo
[1] = system: ragweed (common ragweed, Ambrosia elatior); test: Test A preemergence; conditions: Ambrosia artemisiifolia, pre-emergence, 240 h; for pest or weed control at 500 g/ha: 500 g ai/ha, preemergence, visual injury rating about 10 d after treatment, 0 to 100 scale (0 no effect, 100 complete control), read-out: Ragweed plant response rating
Procedure, shortened: (§1)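 Each rating is a visual injury score from 0 to 100 given about 10 d after treatment, judged against untreated controls kept alongside in the greenhouse. In loam soil–sand blend, seeds got a preemergence directed soil spray, while postemergence plants were 2 to 10 cm tall at spraying.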

[2] = system: ryegrass, Italian (Italian ryegrass, Lolium multiflorum); test: Test A preemergence; conditions: Lolium multiflorum, pre-emergence, 240 h; for pest or weed control at 125 g/ha: 125 g ai/ha, Preemergence, visual injury rating after approximately 10 d, read-out: Ryegrass, Italian plant response rating (0 to 100 scale, 0 is no effect, 100 is complete control); for pest or weed control at 500 g/ha: 500 g ai/ha, preemergence, visual injury rating about 10 d after treatment, 0 to 100 scale (0 no effect, 100 complete control), read-out: Ryegrass, Italian plant response rating
Procedure, shortened: as §1

[3] = system: barnyardgrass (Echinochloa crus-galli); test: Test A preemergence; conditions: Echinochloa crus-galli, pre-emergence, 240 h; for pest or weed control at 125 g/ha: 125 g ai/ha, Preemergence, visual injury rating after approximately 10 d, read-out: Barnyardgrass plant response rating (0 to 100 scale, 0 is no effect, 100 is complete control); for pest or weed control at 500 g/ha: 500 g ai/ha, preemergence, visual injury rating about 10 d after treatment, 0 to 100 scale (0 no effect, 100 complete control), read-out: Barnyardgrass plant response rating
Procedure, shortened: as §1

[4] = system: Kochia (Kochia scoparia); test: Test A preemergence; conditions: Bassia scoparia, pre-emergence, 240 h; for pest or weed control at 125 g/ha: 125 g ai/ha, Preemergence, visual injury rating after approximately 10 d, read-out: Kochia plant response rating (0 to 100 scale, 0 is no effect, 100 is complete control); for pest or weed control at 500 g/ha: 500 g ai/ha, preemergence, visual injury rating about 10 d after treatment, 0 to 100 scale (0 no effect, 100 complete control), read-out: Kochia plant response rating
Procedure, shortened: as §1

[5] = system: giant foxtail (Setaria faberii); test: Test A preemergence; conditions: Setaria faberi, pre-emergence, 240 h; for pest or weed control at 125 g/ha: 125 g ai/ha, Preemergence, visual injury rating after approximately 10 d, read-out: Foxtail, Giant plant response rating (0 to 100 scale, 0 is no effect, 100 is complete control); for pest or weed control at 500 g/ha: 500 g ai/ha, preemergence, visual injury rating about 10 d after treatment, 0 to 100 scale (0 no effect, 100 complete control), read-out: Foxtail, Giant plant response rating
Procedure, shortened: as §1

[6] = system: pigweed (Amaranthus retroflexus); test: Test A preemergence; conditions: Amaranthus retroflexus, pre-emergence, 240 h; for pest or weed control at 125 g/ha: 125 g ai/ha, Preemergence, visual injury rating after approximately 10 d, read-out: Pigweed plant response rating (0 to 100 scale, 0 is no effect, 100 is complete control); for pest or weed control at 500 g/ha: 500 g ai/ha, preemergence, visual injury rating about 10 d after treatment, 0 to 100 scale (0 no effect, 100 complete control), read-out: Pigweed plant response rating
[7] = system: rice (Oryra sativa); test: Test B flooded paddy test; conditions: Oryza sativa, Flood, 250 g ai/ha; scale of 0 to 100 where 0 is no effect and 100 is complete control; read-out: Rice plant response rating
Procedure, shortened: (§2)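 Response scored visually against untreated controls, 0 = no effect and 100 = complete control, 13–15 d after treatment in the greenhouse. Compounds added to paddy water held 3 cm above soil surface. Treatment given at 2-leaf stage.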

[8] = system: barnyardgrass (Echinochloa crus-galli); test: Test B flooded paddy test; conditions: Echinochloa crus-galli, Flood, 250 g ai/ha; scale of 0 to 100 where 0 is no effect and 100 is complete control; read-out: Barnyardgrass plant response rating
Procedure, shortened: as §2

[9] = system: ducksalad (Heteranthera limosa); test: Test B flooded paddy test; conditions: Heteranthera limosa, Flood, 250 g ai/ha; scale of 0 to 100 where 0 is no effect and 100 is complete control; read-out: Ducksalad plant response rating
Procedure, shortened: as §2

[10] = system: sedge, umbrella (small-flower umbrella sedge, Cyperus difformis); test: Test B flooded paddy test; conditions: Cyperus difformis, 250 g ai/ha, Flood, read-out: Sedge, Umbrella plant response rating
Procedure, shortened: as §2

[11] = system: wheat (Triticum aestivum); test: Test A postemergence; conditions: Triticum aestivum, post-emergence, 240 h, 125 g ai/ha, Postemergence; visual injury after approximately 10 d; 0 to 100 scale where 0 is no effect and 100 is complete control; read-out: Plant response rating, Wheat
Procedure, shortened: as §1

[12] = system: ragweed (common ragweed, Ambrosia elatior); test: Test A postemergence; conditions: Ambrosia artemisiifolia, post-emergence, 240 h, 125 g ai/ha, Postemergence; visual injury after approximately 10 d; 0 to 100 scale where 0 is no effect and 100 is complete control; read-out: Plant response rating, Ragweed
Procedure, shortened: as §1

[13] = system: blackgrass (Alopecurus myosuroides); test: Test A postemergence; conditions: Alopecurus myosuroides, post-emergence, 240 h, 125 g ai/ha, Postemergence; visual injury after approximately 10 d; 0 to 100 scale where 0 is no effect and 100 is complete control; read-out: Plant response rating, Blackgrass
Procedure, shortened: as §1

[14] = system: ryegrass, Italian (Italian ryegrass, Lolium multiflorum); test: Test A postemergence; conditions: Lolium multiflorum, post-emergence, 240 h, 125 g ai/ha, Postemergence; visual injury after approximately 10 d; 0 to 100 scale where 0 is no effect and 100 is complete control; read-out: Plant response rating, Ryegrass, Italian
Procedure, shortened: as §1

[15] = system: barnyardgrass (Echinochloa crus-galli); test: Test A postemergence; conditions: Echinochloa crus-galli, post-emergence, 240 h, 125 g ai/ha, Postemergence; visual injury after approximately 10 d; 0 to 100 scale where 0 is no effect and 100 is complete control; read-out: Plant response rating, Barnyardgrass
Procedure, shortened: as §1

[16] = system: corn (Zea mays); test: Test A postemergence; conditions: Zea mays, post-emergence, 240 h, 125 g ai/ha, Postemergence; visual injury after approximately 10 d; 0 to 100 scale where 0 is no effect and 100 is complete control
Procedure, shortened: as §1

[17] = system: giant foxtail (Setaria faberii); test: Test A postemergence; conditions: Setaria faberi, post-emergence, 240 h, 125 g ai/ha, Postemergence; visual injury after approximately 10 d; 0 to 100 scale where 0 is no effect and 100 is complete control; read-out: Plant response rating, Foxtail, Giant
Procedure, shortened: as §1

[18] = system: pigweed (Amaranthus retroflexus); test: Test A postemergence; conditions: Amaranthus retroflexus, post-emergence, 240 h, 125 g ai/ha, Postemergence; visual injury after approximately 10 d; 0 to 100 scale where 0 is no effect and 100 is complete control; read-out: Plant response rating, Pigweed
Procedure, shortened: as §1

[19] = system: Galium (catchweed bedstraw, Galium aparine); test: Test A postemergence; conditions: Galium, post-emergence, 240 h, 125 g ai/ha, Postemergence; visual injury after approximately 10 d; 0 to 100 scale where 0 is no effect and 100 is complete control; read-out: Plant response rating, Galium
Procedure, shortened: as §1

[20] = system: Kochia (Kochia scoparia); test: Test A postemergence; conditions: Bassia scoparia, post-emergence, 240 h, 125 g ai/ha, Postemergence; visual injury after approximately 10 d; 0 to 100 scale where 0 is no effect and 100 is complete control; read-out: Plant response rating, Kochia
Procedure, shortened: as §1

SMILES | pest or weed control at 500 g/ha [1] | pest or weed control at 125 g/ha [2] | pest or weed control at 500 g/ha [2] | pest or weed control at 125 g/ha [3] | pest or weed control at 500 g/ha [3] | pest or weed control at 125 g/ha [4] | pest or weed control at 500 g/ha [4] | pest or weed control at 125 g/ha [5] | pest or weed control at 500 g/ha [5] | pest or weed control at 125 g/ha [6] | pest or weed control at 500 g/ha [6] | pest or weed control at 250 g/ha [7] | pest or weed control at 250 g/ha [8] | pest or weed control at 250 g/ha [9] | plant injury at 125 g/ha [11] | pest or weed control at 125 g/ha [12] | pest or weed control at 125 g/ha [13] | pest or weed control at 125 g/ha [14] | Corn plant response rating (crop injury, 0 = no effect, 100 = complete kill) at 125 g/ha [16] | pest or weed control at 125 g/ha [17] | also measured
CC(=O)Oc1ccc(NC(=O)[C@H]2C(=O)N(C)C[C@@H]2c2cc(F)cc(F)c2)c(F)c1 [Compound 996] | 0% | 0% | 0% | 0% | 0% | 0% | 0% | 0% | 0% | 0% | 0% | 0% | 0% | 70% | 0% | 0% | 0% | 0% | 0% | 0% | pest or weed control at 125 g/ha ([1]; 125 g ai/ha, Preemergence, visual injury rating after approximately 10 d, read-out: Ragweed plant response rating (0 to 100 scale, 0 is no effect, 100 is complete control)): 0%; pest or weed control at 250 g/ha ([10]; 0 to 100 scale where 0 is no effect and 100 is complete control): 0%; pest or weed control at 125 g/ha [15]: 0%; pest or weed control at 125 g/ha [18]: 0%; pest or weed control at 125 g/ha [19]: 0%
Cc1ccc([C@H]2CN(C)C(=O)[C@@H]2C(=O)Nc2cccc(F)c2C)cc1F [Compound 982] | 80% | 90% | 90% | 90% | 90% | 50% | 90% | 90% | 100% | 0% | 50% | 20% | 75% | 100% | 70% | 20% | 70% | 60% | 60% | 90% | pest or weed control at 250 g/ha ([10]; scale of 0 to 100 where 0 is no effect and 100 is complete control): 0%; pest or weed control at 125 g/ha [20]: 50%; pest or weed control at 125 g/ha [18]: 0%

Reference: patent publication US12077503B2, “Substituted cyclic amides and their use as herbicides” (FMC CORPORATION, priority 2015, dated 2024)
